Results published in patent US20090226500A1, “SUTURES AND ANTI-SCARRING AGENTS” (Angiotech Pharmaceuticals, Inc, priority 2006, published 2009).
Where a name gives a salt, the structure may show the parent alone.

The compounds below were run on human fibroblasts (assay: Cell proliferation of fibroblasts). Settings: Fibroblast, 72 h, read-out: IC50 cell proliferation of fibroblasts.
Assay type: cell-based
Experimental: Fibroblasts at 70-90% confluency are trypsinized, replated at 600 cells/well in media in 96-well plates and allowed to attachment overnight. […] Each drug concentration is tested in triplicate wells. Plates containing fibroblasts and drug substance are incubated at 37° C. for 72 hours.
To terminate the assay, the media is removed by gentle aspiration. A 1/400 dilution of CYQUANT 400×GR™ dye indicator (Molecular Probes; Eugene, Oreg.) is added to 1× Cell Lysis buffer, and 200 μL of the mixture is added to the wells of the plate. Plates are incubated at room temperature, protected from light for 3-5 minutes.
Compound `NCCCNCCCCNCCCN` [Spermine tetrahydrochloride] has an IC50 of 600 to 1200 nM.

Same assay, conditions: Fibroblast, 72 hours, CYQUANT, read-out: IC50 cell proliferation of fibroblasts
`CO[C@H]1/C=C\C=C(/C)C(=O)NC2=CC(=O)C(NCCN(C)C)=C(C[C@@H](C)C[C@H](OC)[C@H](O)[C@@H](C)/C=C(\C)[C@@H]1OC(N)=O)C2=O` [17-DMAG, 17-dimethylaminoethylamino-17-demethoxy-geldanamycin] was tested, and the IC50 was 0.1 to 10 nM.
`CO[C@@H]1[C@@H](O[C@@H]2O[C@H](C)[C@@H](O[C@H]3C[C@@](C)(O)[C@@H](OC(=O)CC(C)C)[C@H](C)O3)[C@H](N(C)C)[C@H]2O)[C@@H](CC=O)C[C@@H](C)[C@@H](O)/C=C/C=C/C[C@@H](C)OC(=O)C[C@H]1OC(C)=O` [Josamycin] was tested, and the IC50 was 0.1 to 10 nM.
For `O=c1c(O)c(-c2ccc(O)cc2)oc2cc(O)cc(O)c12` [Kaempferol], the IC50 was 600 to 1200 nM.
Compound `CN(C)C[C@@H]1CCn2cc(c3ccccc32)C2=C(C(=O)NC2=O)c2cn(c3ccccc23)CCO1` [LY333531, Ruboxistaurin] has an IC50 of 1200 to 10000 nM.
Compound `CCCCc1nc(Cl)c(CO)n1Cc1ccc(-c2ccccc2-c2nn[nH]n2)cc1` [Losartan potassium] has an IC50 of 1200 to 10000 nM.
With `NC(Cc1ccc(N(CCCl)CCCl)cc1)C(=O)O` (stereo not drawn) [Melphalan] the IC50 was 1200 to 10000 nM.
With `CCC(=O)O[C@@H]1CC(=O)O[C@H](C)C/C=C/C=C/[C@H](O)[C@H](C)C[C@H](CC=O)[C@H](O[C@@H]2O[C@H](C)[C@@H](O[C@H]3C[C@@](C)(O)[C@@H](OC(=O)CC)[C@H](C)O3)[C@H](N(C)C)[C@H]2O)[C@H]1OC` [Midecamycin, Leucomycin V 3,4B-dipropionate] the IC50 was 1200 to 10000 nM.
Compound `O[C@@H]([C@H](O)[C@H](O)CBr)[C@H](O)CBr` [Mitobronitol] has an IC50 of 100 to 600 nM.
With `NC(=O)c1ncn([C@@H]2O[C@H](CO)[C@@H](O)[C@H]2O)c1O` [Mizoribine] the IC50 was 10 to 100 nM.
For `O=c1c(O)c(-c2cc(O)c(O)c(O)c2)oc2cc(O)cc(O)c12` [Myricetin], the IC50 was 600 to 1200 nM.
Work on `CS(=O)(=O)Nc1ccc([N+](=O)[O-])cc1OC1CCCCC1` [NS-398] yielded an IC50 of 1200 to 10000 nM.
With `CNCCC=C1c2ccccc2CCc2ccccc21` [Nortriptyline Hydrochloride] the IC50 was 0.1 to 10 nM.
`CN(C)[C@@H]1C(O)=C(C(N)=O)C(=O)[C@@]2(O)C(O)=C3C(=O)c4c(O)cccc4[C@@](C)(O)[C@H]3[C@H](O)[C@@H]12` [Oxytetracycline hydrochloride] showed an IC50 of 100 to 600 nM.
With `NCCC(O)(P(=O)(O)O)P(=O)(O)O` [Pamidronate disodium] the IC50 was 100 to 600 nM.
`OC1(c2ccc(Cl)c(C(F)(F)F)c2)CCN(CCCC(c2ccc(F)cc2)c2ccc(F)cc2)CC1` [Penfluridol] gave an IC50 of 600 to 1200 nM.
In the case of `N=C(N)c1ccc(OCCCCCOc2ccc(C(=N)N)cc2)cc1` [Pentamidine], the IC50 is reported as 600 to 1200 nM.
Work on `C1CCNCC1` [Piperidine] yielded an IC50 of 1200 to 10000 nM.
`O=C(CCBr)N1CCN(C(=O)CCBr)CC1` [Pipobroman, N,N-Bis(3-bromopropionyl)piperazine] gave an IC50 of 1200 to 10000 nM.
Work on `Cc1ccc(=O)n(-c2ccccc2)c1` [Pirfenidone] yielded an IC50 of 10 to 100 nM.
For `O=C(O)C[C@H](O)C[C@H](O)/C=C/c1c(C2CC2)nc2ccccc2c1-c1ccc(F)cc1` [Pitavastatin], the IC50 was 100 to 600 nM.
With `CC[C@H](C)C(=O)O[C@H]1C[C@H](O)C=C2C=C[C@H](C)[C@H](CC[C@@H](O)C[C@@H](O)CC(=O)O)[C@H]21` [Pravastatin] the IC50 was 1200 to 10000 nM.
With `O=c1c(O)c(-c2ccc(O)c(O)c2)oc2cc(O)cc(O)c12` [Quercetin dihydrate] the IC50 was 100 to 600 nM.
Compound `C#C[C@]1(O)CC[C@H]2[C@@H]3CCc4cc(OC5CCCC5)ccc4[C@H]3CC[C@@]21C` [Quinestrol, 17a-Ethynylestradiot 3-cyclopentyl ether] has an IC50 of 1200 to 10000 nM.
`C[C@@H]1C[C@H]2O[C@@H]2/C=C\C=C\C(=O)Cc2c(Cl)c(O)cc(O)c2C(=O)O1` [Radicicol] was tested, and the IC50 was 10 to 100 nM.
With `Cc1nc2ccc(CN(C)c3ccc(C(=O)N[C@@H](CCC(=O)O)C(=O)O)s3)cc2c(=O)[nH]1` [Raltitrexed] the IC50 was 10 to 100 nM.
In the case of `COc1ccc(C2CNC(=O)C2)cc1OC1CCCC1` (stereo not drawn) [Rolipram], the IC50 is reported as 100 to 600 nM.
`CC(C)c1nc(N(C)S(C)(=O)=O)nc(-c2ccc(F)cc2)c1/C=C/[C@@H](O)C[C@@H](O)CC(=O)O` [Rosuvastatin] showed an IC50 of 1200 to 10000 nM.
`CC(=O)c1c(O)c(C)c(O)c(Cc2c(O)c3c(c(C(=O)/C=C/c4ccccc4)c2O)OC(C)(C)C=C3)c1O` [Rottlerin] gave an IC50 of 1200 to 10000 nM.
`CC(=O)OCC(=O)NCCCOc1cccc(CN2CCCCC2)c1` [Roxatidine acetate] was tested, and the IC50 was 600 to 1200 nM.
Work on `Nc1nccc(-c2c(-c3ccc(F)cc3)ncn2C2CCNCC2)n1` [SB 220025] yielded an IC50 of 1200 to 10000 nM.
With `COc1cccc(-c2ccc(NC(=O)C3=C(C(=O)O)CCC3)c(F)c2)c1` [SC12267] the IC50 was 1200 to 10000 nM.
`Nc1nc2c(cnn2CCc2ccccc2)c2nc(-c3ccco3)nn12` [SCH-58261] was tested, and the IC50 was 1200 to 10000 nM.
`CCCCCCCCCCCCCCC[C@H](O)[C@@H](N)CO` [Safingol, L-threo-Dihydrosphingosine] was tested, and the IC50 was 600 to 1200 nM.
Work on `O=C(/C=C/c1ccccc1)NC(NC(=S)Nc1cccc2cccnc12)C(Cl)(Cl)Cl` (stereo not drawn) [Salubrinal] yielded an IC50 of 1200 to 10000 nM.
`CCCc1nn(C)c2c(=O)[nH]c(-c3cc(S(=O)(=O)N4CCN(C)CC4)ccc3OCC)nc12` [Sildenafil Citrate] showed an IC50 of 1200 to 10000 nM.
Compound `NCCCCNCCCN` [Spermidine trihydrochloride] has an IC50 of 1200 to 10000 nM.
With `Cc1ccnc(NS(=O)(=O)c2ccc(N)cc2)n1` [Sulfamerazine] the IC50 was 1200 to 10000 nM.
In the case of `COc1cc([C@@H]2c3cc4c(cc3[C@@H](O[C@@H]3O[C@@H]5CO[C@@H](c6cccs6)O[C@H]5[C@H](O)[C@H]3O)[C@H]3COC(=O)[C@H]23)OCO4)cc(OC)c1O` [Teniposide], the IC50 is reported as 10 to 100 nM.
Work on `CN(C/C=C/C#CC(C)(C)C)Cc1cccc2ccccc12` [Terbinafine] yielded an IC50 of 10 to 100 nM.
In the case of `C/C=C(/C)C(=O)O[C@H]1C(C)=C2[C@H]([C@@H]1OC(=O)CCCCCCC)[C@@](C)(OC(C)=O)C[C@H](OC(=O)CCC)[C@@]1(O)[C@H]2OC(=O)[C@@]1(C)O` [Thapsigargin], the IC50 is reported as 0.1 to 10 nM.
`Cn1c(=O)c2[nH]cnc2n(C)c1=O` [Theophylline] was tested, and the IC50 was 0.1 to 10 nM.
With `Cc1cccc(Nc2ccncc2S(=O)(=O)NC(=O)NC(C)C)c1` [Torasemide] the IC50 was 10 to 100 nM.
`CC(=O)Oc1cc(C(F)(F)F)ccc1C(=O)O` [Triflusal] showed an IC50 of 10 to 100 nM.
`CC(C)[C@]12O[C@H]1[C@@H]1O[C@]13[C@]1(O[C@H]1C[C@H]1C4=C(CC[C@@]13C)C(=O)OC4)[C@@H]2O` [Triptolide] gave an IC50 of 0.1 to 10 nM.
With `Oc1ccnc(O)n1` [Uracil, 2,4-Dihydroxypyrimidine] the IC50 was 10 to 100 nM.
`CC[C@]12CCCN3CCc4c(n(c5ccccc45)[C@@](O)(C(=O)OC)C1)[C@@H]32` [Vincamine] gave an IC50 of 0.1 to 10 nM.
Compound `CC(=O)CC(c1ccccc1)c1c(O)c2ccccc2oc1=O` (stereo not drawn) [Warfarin, 3-(a-Acetonylbenzyl)-4-hydroxycoumarin sodium salt] has an IC50 of 0.1 to 10 nM.
`COc1cc(O)c2c(c1)oc(=O)c1c3cc(O)c(O)cc3oc21` [Wedelolactone] gave an IC50 of 1200 to 10000 nM.
Compound `CO[C@H]1C[C@@H]2CC[C@@H](C)[C@@](O)(O2)C(=O)C(=O)N2CCCC[C@H]2C(=O)O[C@H]([C@H](C)C[C@@H]2CC[C@H](n3cnnn3)[C@H](OC)C2)CC(=O)[C@H](C)/C=C(\C)[C@@H](O)[C@@H](OC)C(=O)[C@H](C)C[C@H](C)/C=C/C=C/C=C/1C` [Zotarolimus] has an IC50 of 0.1 to 10 nM.
In the case of `C/C1=C/C[C@@H](/C(C)=C/c2csc(C)n2)OC(=O)C[C@H](O)C(C)(C)C(=O)[C@H](C)[C@@H](O)[C@@H](C)CCC1` [epothilone D], the IC50 is reported as 10 to 100 nM.

The compounds below were run on Smooth muscle cells (assay: Proliferation of smooth muscle cells). Settings: 72 h, read-out: IC50 proliferation of smooth muscle cells.
Assay type: cell-based
Experimental: Smooth muscle cells at 70-90% confluency were trypsinized, replated at 600 cells/well in media in 96-well plates and allowed to attachment overnight. Paclitaxel was prepared in DMSO at a concentration of 10^−2 M and diluted 10-fold to give a range of stock concentrations (10^−8 M to 10^−2 M). […] Each drug concentration was tested in triplicate wells. Plates containing cells and paclitaxel were incubated at 37° C. for 72 hours.
To terminate the assay, the media was removed by gentle aspiration A 1/400 dilution of CYQUANT 400×GR dye indicator (Molecular Probes; Eugene, Oreg.) was added to 1× Cell Lysis buffer, and 200 μL of the mixture was added to the wells of the plate. Plates were incubated at room temperature, protected from light for 3-5 minutes.
For `C/C1=C/C[C@@H](/C(C)=C/c2csc(C)n2)OC(=O)C[C@H](O)C(C)(C)C(=O)[C@H](C)[C@@H](O)[C@@H](C)CCC1` [epothilone D], the IC50 was 5 nM.

Same assay, conditions: 72 hours, CYQUANT; read-out: IC50 proliferation of smooth muscle cells
In the case of `CO[C@H]1/C=C\C=C(/C)C(=O)NC2=CC(=O)C(NCCN(C)C)=C(C[C@@H](C)C[C@H](OC)[C@H](O)[C@@H](C)/C=C(\C)[C@@H]1OC(N)=O)C2=O` [17-DMAG, 17-dimethylaminoethylamino-17-demethoxy-geldanamycin], the IC50 is reported as 17 nM.
With `Nc1nc(Cl)nc2c1ncn2[C@H]1C[C@H](O)[C@@H](CO)O1` [cladribine, 2-Chloro-2-deoxyadenosine] the IC50 was 137 nM.
`C=C1[C@@H](C)[C@H]2[C@H](Cc3ccccc3)NC(=O)[C@]23OC(=O)/C=C/C(=O)CCC[C@@H](C)C/C=C/[C@H]3[C@@H]1O` [cytochalasin A] gave an IC50 of 221 nM.
For `CC(=O)[C@]1(O)Cc2c(O)c3c(c(O)c2[C@@H](O[C@H]2C[C@H](N)[C@H](O)[C@H](C)O2)C1)C(=O)c1ccccc1C3=O` [idarubicin], the IC50 was 38 nM.
Work on `CCC(C)n1ncn(-c2ccc(N3CCN(c4ccc(OCC5COC(Cn6cncn6)(c6ccc(Cl)cc6Cl)O5)cc4)CC3)cc2)c1=O` (stereo not drawn) [itraconazole] yielded an IC50 of 795 nM.
`CC[C@H](C)C(=O)O[C@H]1C[C@@H](C)C=C2C=C[C@H](C)[C@H](CC[C@@H]3C[C@@H](O)CC(=O)O3)[C@H]21` [lovastatin] showed an IC50 of 978 nM.
`CO[C@@]12[C@H](COC(N)=O)C3=C(C(=O)C(C)=C(N)C3=O)N1C[C@@H]1N[C@@H]12` [mitomycin C] gave an IC50 of 53 nM.
`COC(=O)[C@@H]1c2cc3c(c(O)c2[C@@H](O[C@@H]2O[C@@H](C)[C@H](OC)[C@@](C)(OC)[C@H]2OC)C[C@]1(C)O)C(=O)c1c(O)cc2c(c1C3=O)O[C@@H]1O[C@@]2(C)[C@H](O)[C@@H](N(C)C)[C@@H]1O` [nogalamycin] was tested, and the IC50 was 49 nM.
